Results reported in ChEMBL document CHEMBL1201862, “PubChem BioAssay data set” (2004).
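Grown in 96-well plates, cells were treated for 48 hours with each compound at five concentrations. Insufficient inhibition: endpoint recorded as highest concentration tested. The concentration for 50% growth inhibition is given as GI50.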 The source made the active and inactive calls. Cut-off read from the data, not from the text of the source: active = GI50 up to about 1.1 µM and inactive = higher.

Key:
Assay in all cases: growth of human tumour cells (NCI), 48 h
[1] = test system: TK-10
[2] = test system: A549
[3] = test system: SK-MEL-5
[4] = test system: OVCAR-3
[5] = test system: COLO 205
[6] = test system: ACHN
[7] = test system: Hs-578T
[8] = test system: MDA-MB-435
[9] = test system: IGROV-1
[10] = test system: HT-29
[11] = test system: BT-549
[12] = test system: OVCAR-8
[13] = test system: Malme-3M
[14] = test system: MCF7
[15] = test system: NCI-H522
[16] = test system: SK-OV-3
[17] = test system: EKVX
[18] = test system: LOX IMVI
[19] = test system: SF-295
[20] = test system: HOP-92
[21] = test system: SK-MEL-28
[22] = test system: SF-268
[23] = test system: UO-31
[24] = test system: HCT-15
[25] = test system: SF-539
[26] = test system: DU-145
[27] = test system: NCI-H23
[28] = test system: A498
[29] = test system: SNB-75
[30] = test system: OVCAR-5
[31] = test system: 786-0
[32] = test system: SNB-19
[33] = test system: NCI/ADR-RES
[34] = test system: M14
[35] = test system: UACC-257
[36] = test system: HCT-116
[37] = test system: KM12
[38] = test system: RPMI-8226
[39] = test system: MDA-MB-231
[40] = test system: PC-3
[41] = test system: RXF 393
[42] = test system: T47D
[43] = test system: SK-MEL-2
[44] = test system: UACC-62
[45] = test system: K562
[46] = test system: HL-60
[47] = test system: SN12C
[48] = test system: MOLT-4
[49] = test system: HOP-62
[50] = test system: NCI-H226
[51] = test system: NCI-H460
[52] = test system: SW-620
[53] = test system: U-251
[54] = test system: OVCAR-4
[55] = test system: SR
[56] = test system: CAKI-1
[57] = test system: MDA-N
[58] = test system: HCC 2998
[59] = test system: CCRF-CEM

Q: How did the GI50 [1] turn out when `CC1CN(CCO)CCN1c1ccccc1` (centres undefined) was run?
A: Its GI50 is > 100 µM (inactive).

Q: What about the GI50 [2] of the same molecule?
A: Its GI50 is > 100 µM (inactive).

Q: And the GI50 [3]?
A: The GI50 was > 100 µM (inactive).

Q: And the GI50 [4]?
A: Its GI50 is > 100 µM (inactive).

Q: What about the GI50 [5] of the same molecule?
A: Its GI50 is > 100 µM (inactive).

Q: And the GI50 [6]?
A: The GI50 was > 100 µM (inactive).

Q: And the GI50 [7]?
A: The GI50 was > 100 µM (inactive).

Q: What about the GI50 [8] of the same molecule?
A: The GI50 was > 100 µM (inactive).

Q: And the GI50 [9]?
A: Its GI50 is > 100 µM (inactive).

Q: What about the GI50 [10] of the same molecule?
A: The GI50 was > 100 µM (inactive).

Q: What about the GI50 [11] of the same molecule?
A: The GI50 was > 100 µM (inactive).

Q: And the GI50 [12]?
A: The GI50 was > 100 µM (inactive).

Q: And the GI50 [13]?
A: Its GI50 is > 100 µM (inactive).

Q: And the GI50 [14]?
A: Its GI50 is > 100 µM (inactive).

Q: And the GI50 [15]?
A: Its GI50 is > 100 µM (inactive).

Q: And the GI50 [16]?
A: Its GI50 is > 100 µM (inactive).

Q: What about the GI50 [17] of the same molecule?
A: Its GI50 is > 100 µM (inactive).

Q: And the GI50 [18]?
A: The GI50 was > 100 µM (inactive).

Q: What about the GI50 [19] of the same molecule?
A: Its GI50 is > 100 µM (inactive).

Q: And the GI50 [20]?
A: Its GI50 is > 100 µM (inactive).

Q: And the GI50 [21]?
A: The GI50 was > 100 µM (inactive).

Q: And the GI50 [22]?
A: Its GI50 is > 100 µM (inactive).

Q: What about the GI50 [23] of the same molecule?
A: The GI50 was > 100 µM (inactive).

Q: What about the GI50 [24] of the same molecule?
A: Its GI50 is > 100 µM.

Q: What about the GI50 [25] of the same molecule?
A: The GI50 was > 100 µM (inactive).

Q: What about the GI50 [26] of the same molecule?
A: The GI50 was > 100 µM (inactive).

Q: What about the GI50 [27] of the same molecule?
A: The GI50 was > 100 µM (inactive).

Q: And the GI50 [28]?
A: The GI50 was > 100 µM (inactive).

Q: And the GI50 [29]?
A: Its GI50 is > 100 µM (inactive).

Q: And the GI50 [30]?
A: The GI50 was > 100 µM (inactive).

Q: And the GI50 [31]?
A: Its GI50 is > 100 µM (inactive).

Q: And the GI50 [32]?
A: Its GI50 is > 100 µM (inactive).

Q: What about the GI50 [33] of the same molecule?
A: Its GI50 is > 100 µM (inactive).

Q: What about the GI50 [34] of the same molecule?
A: The GI50 was > 100 µM (inactive).

Q: What about the GI50 [35] of the same molecule?
A: Its GI50 is > 100 µM (inactive).

Q: And the GI50 [36]?
A: The GI50 was > 100 µM (inactive).

Q: What about the GI50 [37] of the same molecule?
A: The GI50 was > 100 µM (inactive).

Q: And the GI50 [38]?
A: Its GI50 is > 100 µM (inactive).

Q: And the GI50 [39]?
A: The GI50 was > 100 µM (inactive).

Q: And the GI50 [40]?
A: The GI50 was > 100 µM (inactive).

Q: What about the GI50 [41] of the same molecule?
A: Its GI50 is > 100 µM (inactive).

Q: What about the GI50 [42] of the same molecule?
A: Its GI50 is > 100 µM (inactive).

Q: And the GI50 [43]?
A: Its GI50 is > 100 µM (inactive).

Q: And the GI50 [44]?
A: Its GI50 is > 100 µM (inactive).

Q: And the GI50 [45]?
A: Its GI50 is > 100 µM (inactive).

Q: What about the GI50 [46] of the same molecule?
A: Its GI50 is 42 µM (inactive).

Q: And the GI50 [47]?
A: Its GI50 is > 100 µM (inactive).

Q: What about the GI50 [48] of the same molecule?
A: Its GI50 is 1.41 µM (inactive).

Q: And the GI50 [49]?
A: The GI50 was > 100 µM (inactive).

Q: What about the GI50 [50] of the same molecule?
A: The GI50 was > 100 µM (inactive).

Q: And the GI50 [51]?
A: Its GI50 is > 100 µM (inactive).

Q: What about the GI50 [52] of the same molecule?
A: The GI50 was > 100 µM (inactive).

Q: What about the GI50 [53] of the same molecule?
A: Its GI50 is > 100 µM (inactive).

Q: And the GI50 [54]?
A: The GI50 was > 100 µM (inactive).

Q: What about the GI50 [55] of the same molecule?
A: Its GI50 is > 100 µM (inactive).

Q: And the GI50 [56]?
A: Its GI50 is > 100 µM (inactive).

Q: And the GI50 [57]?
A: The GI50 was > 100 µM (inactive).

Q: Which GI50 [1] does the source give for `C=Cc1c(C)c(O)cc2c1-c1ccc(O)c(C)c1CC2` here?
A: Its GI50 is 13.1 µM (inactive).

Q: What about the GI50 [2] of the same molecule?
A: The GI50 was 19 µM (inactive).

Q: What about the GI50 [3] of the same molecule?
A: The GI50 was 16 µM (inactive).

Q: And the GI50 [4]?
A: The GI50 was 25.8 µM (inactive).

Q: What about the GI50 [5] of the same molecule?
A: The GI50 was 19.3 µM (inactive).

Q: What about the GI50 [6] of the same molecule?
A: The GI50 was 29.4 µM (inactive).

Q: What about the GI50 [7] of the same molecule?
A: Its GI50 is 3.11 µM (inactive).

Q: And the GI50 [8]?
A: Its GI50 is 14.1 µM (inactive).

Q: And the GI50 [9]?
A: The GI50 was 16.6 µM (inactive).

Q: What about the GI50 [10] of the same molecule?
A: Its GI50 is 23.7 µM (inactive).

Q: And the GI50 [11]?
A: The GI50 was 19.5 µM (inactive).

Q: And the GI50 [12]?
A: Its GI50 is 17.5 µM (inactive).

Q: What about the GI50 [13] of the same molecule?
A: The GI50 was 19.6 µM (inactive).

Q: What about the GI50 [14] of the same molecule?
A: The GI50 was 20.9 µM (inactive).

Q: And the GI50 [15]?
A: Its GI50 is 19.4 µM (inactive).

Q: What about the GI50 [16] of the same molecule?
A: Its GI50 is 17 µM (inactive).

Q: And the GI50 [17]?
A: The GI50 was 1.97 µM (inactive).

Q: And the GI50 [18]?
A: The GI50 was 16.1 µM (inactive).

Q: And the GI50 [19]?
A: The GI50 was 14.9 µM (inactive).

Q: What about the GI50 [20] of the same molecule?
A: Its GI50 is 23.2 µM (inactive).

Q: What about the GI50 [21] of the same molecule?
A: Its GI50 is 16.2 µM (inactive).

Q: And the GI50 [22]?
A: The GI50 was 18.5 µM (inactive).

Q: What about the GI50 [23] of the same molecule?
A: Its GI50 is 14.8 µM (inactive).

Q: And the GI50 [24]?
A: The GI50 was 12.2 µM.

Q: And the GI50 [25]?
A: The GI50 was 13.5 µM (inactive).

Q: What about the GI50 [26] of the same molecule?
A: Its GI50 is 14.1 µM (inactive).

Q: And the GI50 [27]?
A: Its GI50 is 17.1 µM (inactive).

Q: And the GI50 [28]?
A: The GI50 was 11.6 µM (inactive).

Q: And the GI50 [30]?
A: Its GI50 is 27.2 µM (inactive).

Q: And the GI50 [31]?
A: The GI50 was 15.8 µM (inactive).

Q: What about the GI50 [32] of the same molecule?
A: Its GI50 is 24.5 µM (inactive).

Q: What about the GI50 [33] of the same molecule?
A: The GI50 was 21 µM (inactive).

Q: What about the GI50 [34] of the same molecule?
A: Its GI50 is 20.9 µM (inactive).

Q: What about the GI50 [35] of the same molecule?
A: The GI50 was 14.8 µM (inactive).

Q: And the GI50 [36]?
A: The GI50 was 14.1 µM (inactive).

Q: What about the GI50 [37] of the same molecule?
A: Its GI50 is 14.3 µM (inactive).

Q: And the GI50 [38]?
A: The GI50 was 22.4 µM (inactive).

Q: And the GI50 [39]?
A: The GI50 was 23.2 µM (inactive).

Q: And the GI50 [40]?
A: The GI50 was > 10 µM (inactive).

Q: And the GI50 [41]?
A: The GI50 was 10.9 µM (inactive).

Q: And the GI50 [42]?
A: Its GI50 is 10.9 µM (inactive).

Q: What about the GI50 [43] of the same molecule?
A: Its GI50 is 17.1 µM (inactive).

Q: And the GI50 [58]?
A: The GI50 was 19 µM (inactive).

Q: And the GI50 [44]?
A: Its GI50 is 7.5 µM (inactive).

Q: And the GI50 [46]?
A: The GI50 was 15 µM (inactive).

Q: What about the GI50 [47] of the same molecule?
A: The GI50 was 17.5 µM (inactive).

Q: And the GI50 [48]?
A: Its GI50 is 11.6 µM (inactive).

Q: What about the GI50 [49] of the same molecule?
A: The GI50 was 26.7 µM (inactive).

Q: What about the GI50 [50] of the same molecule?
A: Its GI50 is 17.3 µM (inactive).

Q: And the GI50 [51]?
A: The GI50 was 20.1 µM (inactive).

Q: And the GI50 [52]?
A: The GI50 was 23.4 µM (inactive).

Q: What about the GI50 [53] of the same molecule?
A: The GI50 was 14.3 µM (inactive).

Q: What about the GI50 [54] of the same molecule?
A: Its GI50 is 17.1 µM (inactive).

Q: What about the GI50 [55] of the same molecule?
A: The GI50 was 3.71 µM (inactive).

Q: And the GI50 [56]?
A: Its GI50 is 13.9 µM (inactive).

Q: What about the GI50 [57] of the same molecule?
A: Its GI50 is 13.6 µM (inactive).

Q: What about the GI50 [59] of the same molecule?
A: The GI50 was 12.5 µM (inactive).
